How the values were obtained:
[1] = Toxicity in BALB/c mouse xenografted with human A549 cells assessed as reduction in body weight at 20 mg/kg, ig administered for 30 days; type: organism-based; conditions: in vivo, po, 720 h
A-375 = assay: Antiproliferative activity against human A375 cells assessed as reduction in cell viability incubated for 72 hrs by MTT assay; type: functional, cell-based; conditions: A-375, 72 h
MCF7 = assay: cells; conditions: Homo sapiens, MCF7, 72 h
A549 [2] = assay: cells; conditions: Homo sapiens, A549, 72 h
HepG2 = assay: cells; conditions: Homo sapiens, HepG2, 72 h
HCT-116 = assay: Antiproliferative activity against human HCT116 cells assessed as reduction in cell viability incubated for 72 hrs by MTT assay; type: functional, cell-based; conditions: HCT-116, 72 h
A549 [3] = assay: Antitumor activity against human A549 cells xenografted in BALB/c nude mouse assessed as tumor growth inhibition at 20 mg/kg, ig administered for 30 days measured every 3 days during compound dosing relative to control; type: functional; conditions: A549, po, read-out: TGI
HeLa [4] = assay: Antitumor activity against human HeLa cells xenografted in BALB/c nude mouse assessed as tumor growth inhibition at 20 mg/kg, ig administered for 30 days measured every 3 days during compound dosing relative to control; type: functional; conditions: po, read-out: TGI
[5] = Toxicity in BALB/c mouse xenografted with human HeLa cells assessed as reduction in body weight at 20 mg/kg, ig administered for 30 days; type: organism-based; conditions: in vivo, po, 720 h
HeLa [6] = assay: Antiproliferative activity against human HeLa cells assessed as reduction in cell viability incubated for 72 hrs by MTT assay; type: functional, cell-based
[7] = target: Phosphatidylinositol 4,5-bisphosphate 3-kinase catalytic subunit alpha isoform (Homo sapiens, UniProt P42336); assay: Inhibition of recombinant human full length N-terminal GST-tagged PI3Kalpha (1 to 1068 residues)/PIK3R1 (1 to 724 residues) expressed in baculovirus expression system using PIP2 as substrate incubated for 1 hr by ADP-Glo assay
Chain of Phosphatidylinositol 4,5-bisphosphate 3-kinase catalytic subunit alpha isoform (P42336 whole entry, looked up, the tested form may be a part, canonical isoform): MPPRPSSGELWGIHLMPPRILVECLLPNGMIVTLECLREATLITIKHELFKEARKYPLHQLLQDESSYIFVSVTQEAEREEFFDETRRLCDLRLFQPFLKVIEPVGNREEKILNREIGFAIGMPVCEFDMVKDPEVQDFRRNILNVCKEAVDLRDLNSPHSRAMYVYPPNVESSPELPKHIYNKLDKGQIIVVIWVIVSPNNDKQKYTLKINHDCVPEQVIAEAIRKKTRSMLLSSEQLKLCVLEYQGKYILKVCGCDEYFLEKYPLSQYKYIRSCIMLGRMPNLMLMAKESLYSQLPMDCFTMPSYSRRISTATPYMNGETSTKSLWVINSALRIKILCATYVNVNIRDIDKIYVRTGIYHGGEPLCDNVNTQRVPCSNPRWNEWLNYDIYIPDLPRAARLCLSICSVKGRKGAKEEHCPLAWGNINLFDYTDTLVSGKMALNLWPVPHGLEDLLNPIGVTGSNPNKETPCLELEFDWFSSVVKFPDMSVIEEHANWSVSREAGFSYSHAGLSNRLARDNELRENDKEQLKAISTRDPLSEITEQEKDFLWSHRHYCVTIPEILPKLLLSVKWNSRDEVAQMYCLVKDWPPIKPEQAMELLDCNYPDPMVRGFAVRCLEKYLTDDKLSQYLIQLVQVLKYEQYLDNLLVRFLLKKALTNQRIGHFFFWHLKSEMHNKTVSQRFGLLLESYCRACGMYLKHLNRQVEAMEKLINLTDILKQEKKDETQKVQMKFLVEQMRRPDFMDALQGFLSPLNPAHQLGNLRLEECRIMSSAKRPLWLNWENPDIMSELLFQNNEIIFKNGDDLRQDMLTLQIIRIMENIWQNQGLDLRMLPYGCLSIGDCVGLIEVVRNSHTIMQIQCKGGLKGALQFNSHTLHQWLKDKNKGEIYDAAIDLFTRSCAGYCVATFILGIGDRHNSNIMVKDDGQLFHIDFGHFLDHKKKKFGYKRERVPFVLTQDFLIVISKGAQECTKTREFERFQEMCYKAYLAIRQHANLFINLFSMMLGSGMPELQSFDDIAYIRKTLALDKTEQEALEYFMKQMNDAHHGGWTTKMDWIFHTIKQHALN

[8] = target: PI3-kinase p110-delta/p85-alpha (Homo sapiens, UniProt O00329); assay: Inhibition of recombinant human full length N-terminal GST-tagged PI3Kdelta (1 to 1044 residues)/PIK3R1 (1 to 724 residues) expressed in baculovirus expression system using PIP2 as substrate incubated for 2 hrs by ADP-Glo assay
Chain of PI3-kinase p110-delta/p85-alpha (P27986 whole entry, the tested form may be a part): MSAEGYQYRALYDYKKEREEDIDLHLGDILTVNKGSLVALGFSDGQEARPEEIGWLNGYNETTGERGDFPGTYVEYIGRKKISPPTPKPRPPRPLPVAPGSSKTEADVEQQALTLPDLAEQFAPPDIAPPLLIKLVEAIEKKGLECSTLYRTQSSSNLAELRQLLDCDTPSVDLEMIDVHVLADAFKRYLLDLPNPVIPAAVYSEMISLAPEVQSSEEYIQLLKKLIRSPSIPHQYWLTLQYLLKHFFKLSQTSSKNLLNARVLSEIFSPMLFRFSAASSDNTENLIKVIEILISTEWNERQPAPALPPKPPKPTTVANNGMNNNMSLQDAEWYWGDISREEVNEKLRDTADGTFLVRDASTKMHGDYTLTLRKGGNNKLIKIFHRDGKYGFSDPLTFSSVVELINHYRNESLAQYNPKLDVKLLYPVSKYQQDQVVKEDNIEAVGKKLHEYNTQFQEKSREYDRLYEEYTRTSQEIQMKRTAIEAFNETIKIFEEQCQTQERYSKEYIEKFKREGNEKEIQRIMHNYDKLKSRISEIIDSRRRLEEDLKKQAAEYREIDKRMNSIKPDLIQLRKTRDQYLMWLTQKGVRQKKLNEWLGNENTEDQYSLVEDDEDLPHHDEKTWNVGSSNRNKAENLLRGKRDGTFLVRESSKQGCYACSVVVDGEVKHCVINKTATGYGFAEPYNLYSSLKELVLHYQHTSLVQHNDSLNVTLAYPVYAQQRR
Chain of PI3-kinase p110-delta/p85-alpha (O00329 whole entry, the tested form may be a part): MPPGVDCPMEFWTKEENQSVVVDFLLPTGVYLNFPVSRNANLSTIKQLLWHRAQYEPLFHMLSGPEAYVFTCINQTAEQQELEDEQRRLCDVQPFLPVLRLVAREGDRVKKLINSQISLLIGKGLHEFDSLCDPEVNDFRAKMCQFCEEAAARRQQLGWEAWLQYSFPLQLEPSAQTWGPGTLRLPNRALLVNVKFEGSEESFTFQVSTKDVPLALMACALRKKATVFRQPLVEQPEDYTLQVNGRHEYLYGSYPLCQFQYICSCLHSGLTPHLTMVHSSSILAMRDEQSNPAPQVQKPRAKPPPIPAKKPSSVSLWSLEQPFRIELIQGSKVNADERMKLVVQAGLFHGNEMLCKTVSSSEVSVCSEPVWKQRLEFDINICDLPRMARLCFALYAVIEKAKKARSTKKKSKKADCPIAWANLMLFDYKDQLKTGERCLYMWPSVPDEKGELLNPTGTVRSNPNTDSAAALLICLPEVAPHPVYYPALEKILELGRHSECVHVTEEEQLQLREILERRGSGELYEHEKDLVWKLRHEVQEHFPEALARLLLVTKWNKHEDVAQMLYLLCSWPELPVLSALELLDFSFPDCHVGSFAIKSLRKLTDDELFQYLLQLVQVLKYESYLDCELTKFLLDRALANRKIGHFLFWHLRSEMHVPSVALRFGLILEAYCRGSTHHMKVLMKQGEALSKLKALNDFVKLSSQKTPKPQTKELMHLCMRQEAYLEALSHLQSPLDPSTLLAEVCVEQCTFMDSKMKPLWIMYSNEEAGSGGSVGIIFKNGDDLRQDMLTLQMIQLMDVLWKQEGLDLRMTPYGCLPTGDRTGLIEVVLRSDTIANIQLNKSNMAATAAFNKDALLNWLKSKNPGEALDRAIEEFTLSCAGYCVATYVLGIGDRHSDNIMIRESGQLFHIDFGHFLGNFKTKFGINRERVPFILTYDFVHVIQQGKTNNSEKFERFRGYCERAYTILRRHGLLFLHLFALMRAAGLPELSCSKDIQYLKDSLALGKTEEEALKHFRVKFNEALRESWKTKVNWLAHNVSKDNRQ

[9] = target: Serine/threonine-protein kinase mTOR (Homo sapiens, UniProt P42345); assay: Inhibition of recombinant human N-terminal FLAG-tagged mTOR (1362 to end residues) using Ulight-4E-BP1 as substrate incubated for 30 mins by fluorescence assay

IC50 (A-375) | IC50 (MCF7) | IC50 (A549 [2]) | IC50 (HepG2) | IC50 (HCT-116) | IC50 (HeLa [6]) | SMILES | Activity [1] | inhibition in vivo at 20 mg/kg (A549 [3]) | inhibition in vivo at 20 mg/kg (HeLa [4]) | Activity [5] | IC50 [7] | IC50 [8] | IC50 [9]
0.58 µM | 0.45 µM | 1.08 µM | 4.04 µM | 1.7 µM | 1.17 µM | Cn1c(=O)n(-c2ccc(C(C)(C)C#N)cc2)c2c3cc(-c4cnc5ccccc5c4)ccc3ncc21 [DACTOLISIB] | Toxic | 56.1% | 66.5% | Toxic | – | – | –
> 40 µM | 29 µM | > 40 µM | > 40 µM | > 40 µM | > 40 µM | O=C1COc2ccc(-c3ccc(O)cc3)cc2N1c1ccccc1 | – | – | – | – | > 1 µM | > 1 µM | > 1 µM
> 40 µM | 17.3 µM | > 40 µM | 10.8 µM | 26.1 µM | 16.4 µM | COc1ccc(N2C(=O)COc3ccc(-c4ccc(O)cc4)cc32)cc1 | – | – | – | – | > 1 µM | > 1 µM | > 1 µM
> 40 µM | > 40 µM | > 40 µM | > 40 µM | > 40 µM | > 40 µM | O=C1COc2ccc(-c3cnc4ccccc4c3)cc2N1c1ccccc1 | – | – | – | – | > 1 µM | > 1 µM | > 1 µM

SMILES | IC50 (A-375) | IC50 (MCF7) | IC50 (A549 [2]) | IC50 (HepG2) | IC50 (HCT-116) | IC50 (HeLa [6]) | Activity [1] | inhibition in vivo at 20 mg/kg (A549 [3]) | inhibition in vivo at 20 mg/kg (HeLa [4]) | Activity [5] | IC50 [7] | IC50 [8] | IC50 [9]
COc1ncc(-c2ccc3c(c2)N(C2CC2)C(=O)CO3)cc1NS(=O)(=O)c1ccc(F)cc1 | 23.9 µM | 35.2 µM | 3.32 µM | 14.4 µM | 24.3 µM | 6.03 µM | – | – | – | – | 0.131 µM | 0.162 µM | 0.253 µM
CC(C)N1C(=O)COc2ccc(-c3cnc(Cl)c(NS(=O)(=O)c4ccc(F)cc4)c3)cc21 | 25.5 µM | 26.6 µM | 5.1 µM | 21.5 µM | 18.9 µM | 5.38 µM | – | – | – | – | 0.0155 µM | 0.0038 µM | 0.0043 µM
COc1cccc(N2C(=O)COc3ccc(-c4cnc(Cl)c(NS(=O)(=O)c5ccc(F)cc5)c4)cc32)c1 | > 40 µM | > 40 µM | 32.6 µM | > 40 µM | > 40 µM | > 40 µM | – | – | – | – | > 1 µM | > 1 µM | > 1 µM
